Assay results taken from article PMC7551400, “Moderate Wine Consumption Reduces Faecal Water Cytotoxicity in Healthy Volunteers” (Nutrients, 2020).
pIC50: −log10 of the molar value. Read-outs that look alike come from different tables or passages of the source.

Experiments:
[1] = tested on: HT-29 cells; details: cited from earlier work
[2] = tested on: HT-29 cells; test: MTT cytotoxicity assay, reference compounds; type: cell-based; details: Homo sapiens, read-out: Toxicity (IC50 value)
Method: (§1) Two human colon adenocarcinoma cell lines, HT-29 (ATCC® HTB-38TM) and […]), were used to evaluate cell cytotoxicity. […] Biowest Europe, Nuaillé, France). […] Cells were grown in 75 cm^2 flasks (Corning Flask, Corning, NY, USA) at 37 °C and in a 5% CO2 atmosphere and the media were renewed every 3 days. […] Cells were seeded at a density of 3.6 × 10^5 cells/mL on well plates, and washed with warm DPBS. […] After that, supernatants were removed from the wells, and MTT (Sigma-Aldrich, St. Louis, MO, USA) solution (0.5 mg/mL) was added (100 μL/well). The plates were immediately incubated for 3 h in darkness. After this time, MTT reagent was aspirated and formazan crystals were diluted in 100 μL of dimethyl sulfoxide (DMSO; Sigma-Aldrich, St. Louis, MO, USA). Absorbance at 570 nm was measured on a Multiskan plate reader (Thermo Scientific, Newington, NH, USA). Cell viability (%) was calculated as Abssample/Abscontrol × 100. Assays were performed in triplicate and three independent experiments were carried out.

[3] = tested on: HCT 116 cells; test: MTT cytotoxicity assay, reference compounds; type: cell-based; details: Homo sapiens, read-out: Toxicity (IC50 value)
Method: as §1

[4] = tested on: HT-29 Glc–/þ cell line; design: method as in PMID 25881551; details: 24 h incubation; cited from earlier work
[5] = tested on: Caco 2 cells; design: method as in PMID 30359553; details: 24 h of incubation; cited from earlier work

Row | SMILES | Concentration at which compound became cytotoxic [1] | pIC50 ([2]; HT-29, 4 h) | pIC50 ([2]; HT-29, 24 h) | pIC50 ([3]; HCT-116, 4 h) | pIC50 ([3]; HCT-116, 24 h) | Concentration with cytotoxicity effects [4] | Concentration from which a cytotoxic effect was exerted [5] | Concentration from which a cytotoxic effect was exerted ([1]; 24 h of incubation) | pIC50 ([2]; HT-29, 4 h incubation, MTT) | pIC50 ([2]; HT-29, 24 h incubation, MTT) | pIC50 ([3]; HCT 116, 4 h incubation, MTT) | pIC50 ([3]; HCT 116, 24 h incubation, MTT)
1 | Oc1ccccc1 [Phenol] | 1250 µM | 1.80 | 2.21 | 1.62 | 1.94 | – | – | – | – | – | – | –
2 | Cc1ccc(O)cc1 [p-Cresol, p-cresol] | – | – | – | – | – | 800 µM | ≥ 3000 µM | ≥ 3000 µM | 2.27 | 2.67 | 2.25 | 2.38
